The subject of experiment [1] is interferon regulatory factor (IRF) pathway in THP-1 dual cells. The experiment is described as follows: THP-1 Dual reporter assay, IRF pathway (luciferase). The note with it: for EC50: Homo sapiens, THP1-Dual, read-out: THP1 Dual EC50 (μM) IRF. Type of experiment: cell-based. An outline of the steps:
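After 18 h stimulation with STING agonist, culture medium was sampled. IRF activity was read as luminescence of ISG54/ISRE-driven luciferase right after adding reagent; NF-κB activity as absorbance at 630 or 655 nm of SEAP (IFN-β minimal promoter with NF-κB elements) after 1 or 2 h at 37° C.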
(A reporter such as luciferase makes a cellular process visible.)

The subject of experiment [2] is NF-κB pathway in THP-1 dual cells. The experiment is described as follows: THP-1 Dual reporter assay, NF-κB pathway (SEAP). The format is cell-based. The conditions noted are these: for EC50: Homo sapiens, THP1-Dual, read-out: THP1 Dual EC50 (μM) NFkB. An outline of the steps: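 IRF output: ISRE-ISG54 luciferase in collected medium, luminescence measured immediately on reagent addition. NF-κB output: SEAP under NF-κB-element IFN-β promoter, detection medium 1 or 2 h at 37° C, absorbance 630 or 655 nm. Cells were stimulated with STING agonist for 18 h beforehand.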

The next experiment concerns the target human STING (Homo sapiens, UniProt Q86WV6). The experiment can be described thus: Fluorescence Thermal Shift assay (binding to STING). The note with it: STING 0.1 mg/mL, SyproOrange, 25 to 99° C. The method, then:
Compounds, constructs and conjugates of the present invention were tested for binding to human STING in Fluorescence Thermal Shift assay. STING was preincubated with the compounds for 20 minutes in 50 mM Hepes, 150 mM NaCl, pH 7.5 in 15 or 16 μl volume, following by adding 4 μl of SyproOrange dye dilution (ThermoFisher, cat no. S-6651). Final STING concentration was 0.1 mg/mL. Thermal unfolding was performed in Real-Time PCR QuantStudio 6 Flex System (Applied Biosystems), from 25 to 99° C., with continuous ramp mode and ramp rate 0.033° C./s. The data were analyzed using Protein Thermal Shift Software (ThermoFisher).

Setting [3] is: 18 h stimulation, absorbance at 630 or 655 nm.

These results are taken from patent publication US12643879B2, “Functionalized heterocyclic compounds as modulators of stimulator of interferon genes (STING)” (RYVU THERAPEUTICS S.A., priority 2019, dated 2026).

Where two headings read alike, the source gives them in different places. Some results are limits rather than exact numbers.

human STING, sequence (Q86WV6 whole entry H232R): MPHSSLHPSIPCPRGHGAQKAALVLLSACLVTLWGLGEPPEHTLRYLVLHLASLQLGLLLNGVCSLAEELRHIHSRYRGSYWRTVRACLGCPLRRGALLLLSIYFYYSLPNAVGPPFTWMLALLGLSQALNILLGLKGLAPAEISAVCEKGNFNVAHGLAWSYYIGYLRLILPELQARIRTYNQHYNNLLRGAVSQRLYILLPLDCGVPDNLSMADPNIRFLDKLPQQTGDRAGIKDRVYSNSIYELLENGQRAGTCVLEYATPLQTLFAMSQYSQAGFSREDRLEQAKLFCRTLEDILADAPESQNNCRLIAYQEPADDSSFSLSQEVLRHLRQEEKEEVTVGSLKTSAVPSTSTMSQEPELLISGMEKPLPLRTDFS

Regarding `Cc1ccc(N2CCC[C@H](N(Cc3ccnc(C)c3)Cc3cn(C4CC4)c4cc(N5CCC(N)C(F)(F)C5)c(F)cc4c3=O)C2)cn1` (stereo partly drawn) [Example 26, 7-(4-amino-3,3-difluoropiperidin-1-yl)-1-cyclopropyl-6-fluoro-3-({[(3S)-1-(6-methylpyridin-3-yl)piperidin-3-yl][(2-methylpyridin-4-yl)methyl]amino}methyl)-1,4-dihydroquinolin-4-one], the EC50 (commonly the concentration that produces a half-maximal response) in experiment [1] (18 h stimulation, luminescence) was less than 1 µM; in experiment [2] (setting [3]), less than 1 µM. For the same compound, the “hSTING FTS binding assay (ΔT C. °)” value on human STING is listed as “+++ (+++=ΔTm ≥20° C.)”.
`Cc1ccc(N2CCC[C@H](N(Cc3ccnc(C)c3)Cc3cn(C4CC4)c4cc(N5CCC6NCCC6C5)c(F)cc4c3=O)C2)cn1` (stereo partly drawn) [Example 68, 1-cyclopropyl-6-fluoro-3-({[(3S)-1-(6-methylpyridin-3-yl)piperidin-3-yl][(2-methylpyridin-4-yl)methyl]amino}methyl)-7-{octahydro-1H-pyrrolo[3,2-c]pyridin-5-yl}-1,4-dihydroquinolin-4-one]: the EC50 in experiment [1] (18 h stimulation, luminescence) was less than 1 µM; in experiment [2] (setting [3]), less than 1 µM. Also, at human STING, the “hSTING FTS binding assay (ΔT C. °)” value is on record as “+++ (+++=ΔTm ≥20° C.)”.
As for `CNC1CCN(c2cc3c(cc2F)c(=O)c(CN(Cc2ccnc(C)c2)[C@H]2CCCN(c4ccc(C)nc4)C2)cn3C2CC2)C1` (stereo partly drawn) [Example 33, 1-cyclopropyl-6-fluoro-7-[3-(methylamino)pyrrolidin-1-yl]-3-({[(3S)-1-(6-methylpyridin-3-yl)piperidin-3-yl][(2-methylpyridin-4-yl)methyl]amino}methyl)-1,4-dihydroquinolin-4-one], the EC50 is less than 1 µM in experiment [1] (18 h stimulation, luminescence) and less than 1 µM in experiment [2] (setting [3]). The “hSTING FTS binding assay (ΔT C. °)” value on human STING is “+++ (+++=ΔTm ≥20° C.)”.
`Cc1cc(CN(Cc2cn(C)c3cc(N4CCC(C(=O)O)CC4)ccc3c2=O)[C@H]2CCCN(c3cccnc3)C2)ccn1` [Example 46, 1-[1-methyl-3-({[(2-methylpyridin-4-yl)methyl][(3S)-1-(pyridin-3-yl)piperidin-3-yl]amino}methyl)-4-oxo-1,4-dihydroquinolin-7-yl]piperidine-4-carboxylic acid]: the EC50 in experiment [1] (18 h) and in experiment [2] (18 h) was greater than 10 µM throughout. Also, the “hSTING FTS binding assay (ΔT C. °)” value on human STING is reported as “++ (++=10<ΔTm <20° C.)”.
As to `CN[C@@H]1CCN(c2cc3c(cc2F)c(=O)c(CN(Cc2ccnc(C)c2)[C@H]2CCCN(c4ccc(C)nc4)C2)cn3C2CC2)C1.Cl` [Example 55, 1-Cyclopropyl-6-fluoro-7-[(3R)-3-(methylamino)pyrrolidin-1-yl]-3-({[(3S)-1-(6-methylpyridin-3-yl)piperidin-3-yl][(2-methylpyridin-4-yl)methyl]amino}methyl)-1,4-dihydroquinolin-4-one hydrochloride], the EC50 in experiment [1] (18 h stimulation, luminescence) is less than 1 µM; in experiment [2] (setting [3]), less than 1 µM. Moreover, the “hSTING FTS binding assay (ΔT C. °)” value on human STING is listed as “+++ (+++=ΔTm ≥20° C.)”.
As for `Cc1ccc(N2CCC[C@H](N(Cc3ccnc(C)c3)Cc3cn(C4CC4)c4cc(OCCO)c(F)cc4c3=O)C2)cn1` [Example 47, 1-Cyclopropyl-6-fluoro-7-(2-hydroxyethoxy)-3-({[(3S)-1-(6-methylpyridin-3-yl)piperidin-3-yl][(2-methylpyridin-4-yl)methyl]amino}methyl)-1,4-dihydroquinolin-4-one], in experiment [1] (18 h stimulation, luminescence), the “THP1 Dual EC50 (μM) IRF” value is recorded as “+ + +”. Moreover, in experiment [2] (setting [3]), the “THP1 Dual EC50 (μM) NFkB” value is listed as “+ + +”. For the same compound, the “hSTING FTS binding assay (ΔT C. °)” value at human STING is recorded as “+++ (+++=ΔTm ≥20° C.)”.
For the compound `Cc1ccc(N2CCC[C@H](N(Cc3ccnc(C)c3)Cc3cn(C4CC4)c4cc(N5CC[C@@H](N)C5)c(F)cc4c3=O)C2)cn1.Cl` [Example 12, 7-[(3R)-3-Aminopyrrolidin-1-yl]-1-cyclopropyl-6-fluoro-3-({[(3S)-1-(6-methylpyridin-3-yl)piperidin-3-yl][(2-methylpyridin-4-yl)methyl]amino}methyl)-1,4-dihydroquinolin-4-one hydrochloride], the EC50 in experiment [1] (18 h stimulation, luminescence) was less than 1 µM; in experiment [2] (setting [3]), less than 1 µM. In addition, on human STING, the “hSTING FTS binding assay (ΔT C. °)” value is given as “+++ (+++=ΔTm ≥20° C.)”.
